Consider 13 substances from US8178506B2, “Oligomeric compounds and compositions for use in modulation of small non-coding RNAs” (Regulus Therapeutics Inc., priority 2003, dated 2012).

In the oligonucleotide strings, read from the 5' end, every base follows the letter of its sugar. An asterisk marks phosphorothioate; unmarked linkages are phosphodiester. Other units and linkages are bracketed, terminal groups are in braces. A string of capitals states the bases alone. e = 2'-O-(2-methoxyethyl) (MOE); [5mC] = 5-methylcytosine; d = 2'-deoxy (DNA)

One data set concerns HepG2 cells. Kind of data set: Insulin signaling assay in HepG2 cells, marker genes taken together. In kind it is cell-based, human. As to conditions: for expression of the IGFBP-1, PEPCK-c and follistatin marker genes: 100 nM.
The test system of a further data set is T47D cells. Kind of data set: Caspase-3 activity assay (apoptosis) in T47D cells. The following applies: caspase assay, 200 nM; conclusion from Tables 9-12.
In data set [1] the test system is preadipocytes / differentiating adipocytes. Nature of the data set: Adipocyte differentiation assay, markers taken together. The class given is cell-based, human. As to conditions: differentiating adipocytes, % of UTC (Table 55). As for the experimental part: Oligomeric compounds of the invention are tested for their effects on preadipocyte differentiation. […] For the other adipocyte differentiation markers assayed, an oligomeric compound targeted to PPAR-γ, also known to inhibit adipocyte differentiation, may be used as a positive control.
Cells are transfected as described herein. […] Untreated control cells receive LIPOFECTIN™ only.
After the cells have reach confluence (approximately three days), they are exposed for an additional three days to differentiation medium (Zen-Bio, Inc., Research Triangle Park, N.C.) containing a PPAR-γ agonist, IBMX, dexamethasone, and insulin. Cells are then fed adipocyte medium (Zen-Bio, Inc.), which is replaced at 2 or 3 day intervals.
For assaying adipocyte differentiation, expression of the four hallmark genes, HSL, aP2, Glut4, and PPARγ, as well as triglyceride (TG) accumulation and leptin secretion were measured in adipocytes transfected with the uniform 2′-MOE phosphorothioate (PS) oligomeric compounds previously described. Cells are lysed on day nine post-transfection, in a guanadinium-containing buffer and total RNA is harvested. Real-time PCR is performed (Applied Biosystems, Prism 7700) on the total RNA using the following primer/probe sets for the adipocyte differentiation hallmark genes: (aP2): forward 5′-GGTGGTGGAATGCGTCATG-3′ (SEQ ID NO: 746), reverse 5′-[…]-3′ (SEQ ID NO: 747), probe 5′-FAM-[…]-TAMRA-3′ (SEQ ID NO: 748); (Glut4): forward 5′-GGCCTCCGCAGGTTCTG-3′ (SEQ ID NO: 749), reverse 5′-[…]-3′ (SEQ ID NO: 750), probe 5′-FAM-[…]-TAMRA-3′ (SEQ ID NO: 751); (HSL): forward 5′-ACCTGCGCACAATGACACA-3′ (SEQ ID NO: 752), reverse 5′-[…]-3′ (SEQ ID NO: 753), probe 5′-FAM-[…]-TAMRA-3′ (SEQ ID NO: 754); (PPAR-γ): forward 5′-[…]-3′ (SEQ ID NO: 755), reverse 5′-[…]-3′ (SEQ ID NO: 756), probe 5′-FAM-[…]-TAMRA-3′ (SEQ ID NO: 757). The amount of total RNA in each sample is determined using a Ribogreen Assay (Molecular Probes, Eugene, Oreg.), and expression levels of the adipocyte differentiation hallmark genes were normalized to total RNA. Leptin protein and triglyceride levels as well as mRNA levels for each of the four adipocyte differentiation hallmark genes are expressed relative to control levels (control=treatment with ISIS-29848 (SEQ ID NO: 737)).
In some embodiments, differentiating adipocytes were treated with uniform 2′-MOE phosphorothioate oligomeric compounds according to the methods described above, and the expression of the four hallmark genes, HSL, aP2, Glut4, and PPARγ, as well as triglyceride (TG) accumulation were measured. […] Undifferentiated adipocytes were also compared as a negative control. […] The effects of TNF-α, also known to inhibit adipocyte differentiation, were also measured.

In another data set the test system is mir-15a pri-miRNA. Nature of the data set: mir-15a pri-miRNA expression in T47D cells (real-time RT-PCR). The class given is cell-based, human. The following applies: for levels of the mir-15a pri-miRNA molecule: 100 nM. The source says: The gapmer oligomeric compounds targeting the mir-15b and mir-15-a-1 mature miRNAs described above were also transfected into T47D cells according to standard procedures. In addition, uniform 2′-MOE and 2′-MOE gapmer oligomeric compounds targeting the mature mir-15a-1 and mir-15b miRNAs were also transfected into T47D cells, for analysis of their effects on mir-15a-1 and mir-15b pri-miRNA levels. The oligomeric compounds ISIS Number 327927 (SEQ ID NO: 345), a uniform 2′-MOE compound and ISIS Number 345391 (SEQ ID NO: 345), a 2′-MOE 5-10-7 gapmer compound, both target mir-15b. The oligomeric compounds ISIS Number 327951 (SEQ ID NO: 369), a uniform 2′-MOE compound, and ISIS Number 345411 (SEQ ID NO: 369), a 2′-MOE 5-10-7 gapmer compound, both target mir-15a-1. Oligomeric compounds ISIS Number 129686 ([…]; SEQ ID NO: 901), and ISIS Number 129691 ([…]; SEQ ID NO:902), both universal scrambled controls, as well as ISIS Number 116847 ([…]; SEQ ID NO: 844) targeting an unrelated gene, PTEN, were used as negative controls. ISIS Numbers 129686, 129691, and 116847 are phosphorothiated 2′-MOE 5-10-5 gapmers, and all cytosines are 5-methylcytosines. T47D cells (seeded in 12-well plates) were treated with these oligomeric compounds, and RNA was isolated from the treated cells by lysing in 1 mL TRIZOL™ (Invitrogen) and total RNA was prepared using the manufacturer's recommended protocols. To assess the effects of these compounds on expression of the mir-15a or mir-15b pri-miRNA molecules, real-time RT-PCR analysis was performed using either the primer/probe set specific for the mir-15a pri-miRNA molecule described above, or a primer probe set specific for the mir-15b pri-miRNA molecule: ISIS 339320 ([…]; SEQ ID NO: 903) was used as the forward primer for the mir-15b pri-miRNA, ISIS 339321 ([…] ACTGT; SEQ ID NO: 904) was used as the reverse primer for the mir-15b pri-miRNA, and ISIS 339322 ([…]; SEQ ID NO: 905) was used as the probe. Total RNA was quantified using RiboGreen™ RNA quantification reagent (Molecular Probes, Inc. Eugene, Oreg.), expression levels observed for each target were normalized to 5.8S rRNA, and values are expressed relative to the untreated control. Inhibition of expression of the mir15a or mir-15b pri-miRNA molecules upon treatment with these oligomeric compounds is was assessed and expressed as a percentage of RNA levels in untreated control cells.
Using the real-time RT-PCR methods described, the expression levels of the mir-15a pri-miRNA were compared in T47D cells treated with the nested series of uniform 2′-MOE oligomeric compounds, targeting and spanning the entire length of the mir-15a pri-miRNA. The region encompassing the mir-15a primary transcript (the complement of nucleotides 31603159 to 31603468 of GenBank Accession number NT—024524.13; AAATAATTATG […]) is incorporated herein as SEQ ID NO: 906. ISIS Number 356215 (SEQ ID NO: 879) targets a region flanking and immediately 5′ to the predicted 5′ Drosha cleavage site in the mir-15a pri-miRNA. ISIS Number 356218 (SEQ ID NO: 881) targets aregion in the loop of the mir-15a pri-miRNA. ISIS 356227 (SEQ ID NO: 883) targets a region flanking and immediately 3′ to the predicted 3′ Drosha cleavage site in the mir-15a pri-miRNA. Additionally, oligomeric compound ISIS 327951 (SEQ ID NO: 369), a uniform 2′-MOE compound targeting the mature mir-15a-1 miRNA, was tested for comparison. Oligomeric compounds ISIS 327901 (SEQ ID NO: 319) targeting the mature mir-143 miRNA; ISIS 129690, ([…]; SEQ ID NO: 907), a phosphorothioate 5-10-5 MOE gapmer used as a universal scrambled control; and ISIS 116847 ([…]; SEQ ID NO: 844), a uniform 5-10-52′-MOE gapmer targeting an unrelated gene, PTEN, were used as negative controls. Using the transfection methods previously described, T47D cells were treated with 100 nM of each of these oligomeric compounds. […]
(In general: Quantitative PCR measures a nucleic acid by following its amplification.)

“ISIS 328377: 5-10-5 2′-MOE gapmer PS; targets hypothetical miRNA-030 pri-miRNA (eT*e[5mC]*eA*e[5mC]*eT*d[5mC]*d[5mC]*dT*dA*dA*dA*dG*dG*dT*dT*e[5mC]*eA*eA*eG*eT)”: in the data set with HepG2 cells (HepG2, 1 nM insulin), the “expression of the IGFBP-1, PEPCK-c and follistatin marker genes” value is “increased expression of the IGFBP-1, PEPCK-c and follistatin marker genes”. In addition, the “apoptosis in T47D cells” value in the data set with T47D cells is “prevent or have a protective effect from apoptosis”.
Regarding “CCAAGTTCTGTCATGCACTGA (anti-miR; chemistry not fully specified) [ISIS 327964, uniform 2′-MOE PS; targets mir-152]”, in the data set with HepG2 cells (HepG2, 1 nM insulin), the “expression of the IGFBP-1, PEPCK-c and follistatin marker genes” value was “increased expression of the IGFBP-1, PEPCK-c and follistatin marker genes”.
On to “ISIS 341803: SEQ ID NO: 760, targeting mir-206 (antisense CCACACACTTCCTTACATTCCA; all 2'-MOE, all phosphorothioate, methylation of C not given here)”, for which, in the data set with HepG2 cells (HepG2, basal (no insulin)), the “IGFBP-1 and PEPCK-c marker genes” value is “increases in the IGFBP-1 and PEPCK-c marker genes”.
Consider “TGTAAACCATGATGTGCTGCTA (anti-miR; chemistry not fully specified) [ISIS 327927, uniform 2′-MOE PS; targets mir-15b]”, for which, in data set [1], the “five markers of adipocyte differentiation” value is on record as “increase in all five markers of adipocyte differentiation”. Also, the “levels of the mir-15a pri-miRNA molecule” value with mir-15a pri-miRNA is on record as “stimulate an increase in levels of the mir-15a pri-miRNA molecule”.
Consider “AACCGATTTCAAATGGTGCTAG (anti-miR; chemistry not fully specified) [ISIS 327913, uniform 2′-MOE PS; targets mir-29c]”, for which the “expression of the IGFBP-1, PEPCK-c and follistatin marker genes” value was “increased expression of the IGFBP-1, PEPCK-c and follistatin marker genes” in the data set with HepG2 cells (HepG2, 1 nM insulin); “increased expression of the IGFBP-1, PEPCK-c and follistatin marker genes” with HepG2 cells (HepG2, basal (no insulin)).
As to “GAAAGAGACCGGTTCACTGTGA (anti-miR; chemistry not fully specified) [ISIS 327923, uniform 2′-MOE PS; targets mir-128b]”, the “expression of the IGFBP-1, PEPCK-c and follistatin marker genes” value with HepG2 cells (HepG2, 1 nM insulin) was “increased expression of the IGFBP-1, PEPCK-c and follistatin marker genes”.
“ISIS 356216: uniform 2′-MOE PS; SEQ ID NO: 880; targets mir-15a pri-miRNA (antisense eG*e[5mC]*eA*e[5mC]*e[5mC]*eT*eT*eT*eT*e[5mC]*eA*eA*eA*eA*eT*e[5mC]*e[5mC]*eA*e[5mC]*eA) [uniform 2′-MOE PS; targets mir-15a pri-miRNA]”: the “levels of the mir-15a pri-miRNA molecule” value in the data set on mir-15a pri-miRNA is “stimulate an increase in levels of the mir-15a pri-miRNA molecule”.
On to “CACAAATTCGGATCTACAGGGTA (anti-miR; chemistry not fully specified) [ISIS 327949, uniform 2′-MOE PS; targets mir-10a]”, for which the “expression of the IGFBP-1 and follistatin marker genes” value in the data set with HepG2 cells (HepG2, basal (no insulin)) is “increased expression of the IGFBP-1 and follistatin marker genes”.
On to “116847 (antisense e[5mC]*eT*eG*e[5mC]*eT*dA*dG*d[5mC]*d[5mC]*dT*d[5mC]*dT*dG*dG*dA*eT*eT*eT*eG*eA) [compound 116847]”, for which the “mir-15a pri-miRNA expression % UTC” value in the data set on mir-15a pri-miRNA (real-time RT-PCR) was 132 % UTC.
As for “ISIS 356221: uniform 2′-MOE PS; SEQ ID NO: 882; targets mir-15a pri-miRNA (antisense eA*eG*e[5mC]*eA*e[5mC]*eA*eA*eT*eA*eT*eG*eG*e[5mC]*e[5mC]*eT*eG*e[5mC]*eA*e[5mC]*e[5mC]) [uniform 2′-MOE PS; targets mir-15a pri-miRNA]”, the “levels of the mir-15a pri-miRNA molecule” value in the data set on mir-15a pri-miRNA is “stimulate an increase in levels of the mir-15a pri-miRNA molecule”.
For “ISIS 341802: SEQ ID NO: 1806, targeting mir-191 (antisense AGCUGCUUUUGGGAUUCCGUUG; all 2'-MOE, all phosphorothioate, methylation of C and T or U not given here)”, the “expression of the IGFBP-1 and follistatin marker genes” value in the data set with HepG2 cells (HepG2, basal (no insulin)) is “increased expression of the IGFBP-1 and follistatin marker genes”.
For the substance “ISIS 356231: uniform 2′-MOE PS; targets mir-15a pri-miRNA (antisense eT*eT*e[5mC]*eA*eG*eA*eA*eG*eA*eT*e[5mC]*eA*eG*eA*eT*e[5mC]*e[5mC]*eT*eT*eG)”, in the data set with mir-15a pri-miRNA, the “levels of the mir-15a pri-miRNA molecule” value is listed as “stimulate an increase in levels of the mir-15a pri-miRNA molecule”.
Turning to “GGGGTATTTGACAAACTGACA (anti-miR; chemistry not fully specified) [ISIS 327961, uniform 2′-MOE PS; targets mir-223]”, the “expression of the IGFBP-1, PEPCK-c and follistatin marker genes” value in the data set on HepG2 cells (HepG2, 1 nM insulin) was “increased expression of the IGFBP-1, PEPCK-c and follistatin marker genes”. Also, the “expression of the IGFBP-1 and follistatin marker genes” value with HepG2 cells (HepG2, basal (no insulin)) is “increased expression of the IGFBP-1 and follistatin marker genes”.
